Test results: patent US10588896B2, “Agents for the treatment of retroviral infectious diseases” (IMMUNOLOGIK GMBH, priority 2014, dated 2020)
“Also recorded” adds a separate entry of the source. Read-outs that look alike come from different tables or passages of the source.

What was measured:
[1] = system: HIV-1 Gag structure proteins; test: Western Blot analysis of HIV-1 Gag processing in HeLa cells transfected with pNLΔenv (cell and VLP fraction); assay type: cell-based
Method: In order to investigate whether PR-619 and its derivatives inhibit the processing of HIV-1 Gag structure proteins, Western Blot (WB) analyses were carried out. Therefore, HeLa cell cultures were transfected with the pNLΔenv plasmid which encodes for HIV-1 proteins excluding the env envelope proteins. This enables the production of virus-like particles (VLPs), an established in vitro model in HIV-1 research. 24 h after transfection the cells were transferred to reaction vessels, and a pre-incubation with PR-619 for 1 h was performed. Thereupon, the cells were washed three times with PBS and incubated for 4 h in fresh RPMI medium either with 20 μM PR-619 (Merck-Millipore) or with the corresponding amount of DMSO as solvent control at 37° C.
Then a separation into a cell and a VLP fraction was effected by means of centrifugation. VLPs were purified from the cell culture supernatants via a 20% sucrose cushion. Cells were then washed with PBS and lysed with RIPA buffer. Protein concentrations were determined by means of Bradford protein assays and assimilated for the respective lysates. […]
A densitometric evaluation of Gag processing in the VLP fraction was carried out with the analysis program AIDA®. The densitometric evaluation allows for the quantification of signal intensities in Western Blot and thus conclusions on the quantity of a certain protein in the sample. […]

[2] = system: HIV-1NL4-3 (X4 tropic); test: HIV-1 replication in infected PBMC cultures (T cells), reverse transcriptase activity in supernatant; assay type: cell-based; details: for inhibition of the HIV-1 replication / reduction of the HIV-1 replication capacity (AUC) / concentration beginning with which HIV-1 replication is inhibited / HIV-1 replication: T cells; for reduction of the HIV-1 replication capacity (AUC): 6 donors; for concentration beginning with which HIV-1 replication is inhibited: substance alone; for HIV-1 replication: structured and permanent treatment
Method: According to the invention, isolated primary human peripheral blood mononuclear cell (PBMC) cultures were infected to this aim with the virus strain HIV-1NL4-3(X4 tropic) or HIV-1 NLNL4-3(R5 tropic). […] The treatment with DUB inhibitors was carried out over the entire experimental period (“permanent treatment”) or only on Day 1 and Day 3 after infection (“structured treatment”). In the infection with HIV-1NL4-3 (R5 tropic), only a permanent treatment was performed. Each 2-3 days samples from the cell culture supernatants were taken, frozen and later on used for determining reverse transcriptase activity. Concomitantly, 80% of the cell culture medium was replaced and fresh PR-619 was added. Reverse transcriptase activity (ccpm) was determined in the cell-free cell culture supernatants and plotted against time (FIGS. 4A and 4B; the black arrows indicate the treatment with PR-619).
For six different donors the area under the curve (AUC) in the HIV-1 replication profiles after infection of PBMCs with T-cell tropic virus was determined, representing the HIV-1 replication capacity.
Experiments were carried out as described in Example 2. […]

[3] = system: HIV-1NL4-3 (R5 tropic); test: HIV-1 replication in infected PBMC cultures (macrophages), reverse transcriptase activity in supernatant; assay type: cell-based; details: for reduction of the HIV-1 replication capacity: 5 donors
Text: As could be shown in the preceding example that PR-619 inhibits the late processes in Gag processing this effect on the spread of infection was investigated. According to the invention, isolated primary human peripheral blood mononuclear cell (PBMC) cultures were infected to this aim with the virus strain HIV-1NL4-3(X4 tropic) or HIV-1 NLNL4-3(R5 tropic). One day after infection cells were washed with PBS (phosphate buffer saline), provided with fresh medium containing the DUB inhibitor PR-619 in several non-cytotoxic concentrations (3.5 μM, 7 μM, 14 μM, 28 μM). The treatment with DUB inhibitors was carried out over the entire experimental period (“permanent treatment”) or only on Day 1 and Day 3 after infection (“structured treatment”). In the infection with HIV-1NL4-3 (R5 tropic), only a permanent treatment was performed. Each 2-3 days samples from the cell culture supernatants were taken, frozen and later on used for determining reverse transcriptase activity. Concomitantly, 80% of the cell culture medium was replaced and fresh PR-619 was added. Reverse transcriptase activity (ccpm) was determined in the cell-free cell culture supernatants and plotted against time (FIGS. 4A and 4B; the black arrows indicate the treatment with PR-619).
In permanent treatment 3.5 μM yielded a reduction by 35%(±8%), 7 μM a reduction by 60%(±9%) and 14 μM by 100%.
For comparative purposes, the anti-retroviral effect found for PR-619 was compared with three other DUB inhibitors P005091, WP1130 and P22077. Experiments were carried out as described in Example 2.
In order to clarify the question whether a combined permanent treatment with PR-619 and the proteasome inhibitor bortezomib (Velcade®) causes a synergistic effect on the replication capacity of HIV-1, a cross titration was carried out with both substances (analogous to Example 2 and 3). Herein, PBMC cultures were treated permanently after infection with the virus strain HIV-1NL4-3, first only with the DUB inhibitor PR-619 or with the proteasome inhibitor bortezomib in non-toxic increasing concentrations (PR-619: 0.3 μM, 0.9 μM, 2.75 μM and 8 μM; bortezomib: 0.6 nM, 1.5 nM, 5.3 nM and 16 nM).
Herein, the cells were treated permanently with constantly 0.6 nM bortezomib and increasing concentrations of PR-619 (0.3 μM, 0.9 μM, 2.7 μM and 8 μM). Experiments were carried out as described in Example 2. […] The DUB inhibitor PR-619 is able to inhibit the HIV-1 replication beginning with a concentration of 2.7 μM (FIG. 12B).

[4] = system: MHC-I antigen presentation of Gag-derived epitopes; test: MHC-I antigen presentation of Gag-derived SL epitope in HeLa-Kb cells, FACS with mAB 25D1.16; assay type: cell-based, human; details: HeLa-Kb cells transfected with Gag-SL, 7 and 14 μM, dose-dependent
Text: Since there is no conformation-dependent MHC-I specific antibody that could detect Gag epitopes bound to human MHC-I molecules the ovalbumin-derived sequence […] (SL) was introduced as a model epitope into the non-structured SP1 spacer region of Gag. For measuring the MHC-I antigen presentation, HeLa cells constitutively expressing the murine SL-binding MHC-I allotype H2-Kb (HeLa-Kb) (Porgador et al., 1997, Immunity 6(6), 715-726) were transfected with expression plasmids coding for Gag-SL proteins. Performing flow cytometric analyses the monoclonal antibody (mAB) 25D1.16 was used which recognizes specifically SL in the complex with H2-Kb.
24 h after transfection the cells were incubated overnight with different concentrations of the DUB inhibitor PR-619 (7 and 14 μM).
Then, an acid wash (acid washing buffer pH 3) was carried out for removing the H2-Kb-SL complexes from the cell surface. Thereafter, the cells were incubated with and without PR-619 for 4 h at 37° C. and then the newly loaded H2-Kb-SL complexes at the cell surface under inhibition with PR-619 were determined by FACS analysis with the monoclonal AB 25D1.16. For compensating possible differences in the expression level of Gag-SL, the mean fluorescence intensity (MFI) of the 25D1.16 staining was normalized to the MFI of the intracellular Gag signal.

[5] = system: HIV-1NL4-3 (X4-tropic) or HIV-1NL4-3 (R5-tropic); test: HIV-1 replication in human lymphoid aggregate culture (HLAC) ex vivo tonsillar tissue; assay type: cell-based; details: for reduction of the HIV-1 replication capacity: T cells and macrophages, permanent treatment, 3 replication profiles
Method: In order to substantiate the inhibition of the HIV replication under treatment with PR-619, as observed in Example 2, according to the invention human ex vivo cultivated tonsillar tissue was infected with the virus strain HIV-1NL4-3 (X4-tropic) or HIV-1NL4-3 (R5-tropic). The experiments were carried out as described in Example 2.

[6] = system: HLAC cultures; test: WST assay cytotoxicity in HLAC cultures from ex vivo tonsillar tissue; assay type: cell-based, human
[7] = system: PBMC cultures
Method: Toxicity was assessed with a WST assay. Herein viable cells with an intact mitochondrial succinate-tetrazolium dehydrogenase system effect an enzymatic conversion of the feebly red tetrazolium salt WST-1 (4-[3-(4-iodophenyl)-2-(4-nitrophenyl)-2H-5tetrazolio]-1,3 benzene disulfonate) into the dark red formazan. This color change can be measured photometrically in a spectrophotometer. Thus, the WST assay is a very sensitive method for measuring the toxicity of substances on the cell metabolism.
The respective percentage of dead cells was depicted in comparison to untreated control (100%).

N#CSc1cc(SC#N)c(N)nc1N [PR-619, 2,6-diaminopyridine-3,5-bis(thiocyanate)]
Gag processing (Western Blot) ([1]; 20 μM PR-619, 4 h, HeLa cells transfected with pNLΔenv): significantly inhibits Gag processing
generation of the main Gag processing product CA (densitometric evaluation, VLP fraction) ([1]; 20 μM PR-619, VLP fraction): clearly inhibited
antiviral efficacy (concentration) ([2]; PBMC): about 3.5 μM
inhibition of the HIV-1 replication ([2]; 3.5 μM, permanent treatment): complete
inhibition of the HIV-1 replication ([2]; 3.5 μM, structured treatment): clear
reduction of the HIV-1 replication capacity (AUC) ([2]; permanent treatment, 3.5 μM): 50%(±16%)
reduction of the HIV-1 replication capacity (AUC) ([2]; permanent treatment, 7 μM): 97%(±15%)
reduction of the HIV-1 replication capacity (AUC) ([2]; permanent treatment, 14 μM): 100%
concentration beginning with which HIV-1 replication is inhibited ([2]; permanent treatment): 2700 nM
reduction of the HIV-1 replication capacity (AUC) ([2]; structured treatment, 3.5 μM): 23%(±14%)
reduction of the HIV-1 replication capacity (AUC) ([2]; structured treatment, 7 μM): 94%(±14%)
reduction of the HIV-1 replication capacity (AUC) ([2]; structured treatment, 14 μM): 100%
reduction of the HIV-1 replication capacity ([3]; permanent treatment, 3.5 μM): 35%(±8%)
reduction of the HIV-1 replication capacity ([3]; permanent treatment, 7 μM): 60%(±9%)
reduction of the HIV-1 replication capacity ([3]; permanent treatment, 14 μM): 100%
increase of MHC-I antigen presentation of Gag-derived epitopes [4]: 6 fold
inhibitory effect on the HIV-1 replication ([5]; 1.25 μM): did not exert an inhibitory effect
inhibition of the replication ([5]; 2.5 μM, 5 μM and 10 μM): clear, respectively complete inhibition of the replication
reduction of the HIV-1 replication capacity ([5]; 2.5 μM): 40%(±9%)
reduction of the HIV-1 replication capacity ([5]; 5 μM): 86%(±2%)
reduction of the HIV-1 replication capacity ([5]; 10 μM): completely
toxic effect (WST assay) ([6]; all applied antiretrovirally effective concentrations, 15 days): did not display any significant toxic effect
toxic effects (WST assay) ([6]; highest concentration of 10 μM): no toxic effects were observed
concentration at which a clear toxic effect starts ([7]; PBMC, 15 days): 28 µM
toxic effect (WST assay) ([7]; antivirally effective concentrations, observation period of 15 days): did not display any significant toxic effect; also recorded: does not display a significant toxic effect
toxic effect (WST assay) ([7]; highest used concentration of 8 μM, permanent treatment): did not show either a clear toxic effect

CC(C)C[C@H](NC(=O)[C@H](Cc1ccccc1)NC(=O)c1cnccn1)B(O)O [bortezomib, reference compound]
concentration beginning with which HIV-1 replication is inhibited ([2]; permanent treatment): 5.3 nM
concentration beginning with which HIV-1 replication is inhibited ([3]; permanent treatment, substance alone): 5.3 nM
reduction in living cells ([7]; 16 nM, permanent treatment): 60%
toxicity (WST assay) ([7]; 0.6-5.3 nM, permanent treatment): did not display any toxicity

COc1ccc(C[C@H](NC(=O)[C@H](C)NC(=O)CN2CCOCC2)C(=O)N[C@@H](Cc2ccccc2)C(=O)[C@@]2(C)CO2)cc1 [PR-957, reference compound]
concentration beginning with which HIV-1 replication is inhibited ([2]; permanent treatment): 80 nM
toxicity (WST assay) ([7]; 20-160 nM, permanent treatment): did not display any toxicity

CC(=O)c1cc([N+](=O)[O-])c(Sc2cccc(Cl)c2Cl)s1 [P005091, 1-[5-[(2,3-dichlorophenyl)thio]-4-nitro-2-thienyl]-ethanone, reference compound]
HIV-1 replication ([2]; 0.75 μM, 1.5 μM and 3 μM): does not inhibit HIV-1 replication
HIV-1 replication ([3]; 0.75 μM, 1.5 μM and 3 μM): does not inhibit HIV-1 replication
toxicity (WST assay) ([7]; 0.75-3 μM, day 13): shows no toxicity

CCC[C@H](NC(=O)/C(C#N)=C/c1cccc(Br)n1)c1ccccc1 [WP1130, (2E)-3-(6-bromo-2-pyridinyl)-2-cyano-N-[(1S)-1-phenylbutyl]-2-propenamide, reference compound]
HIV-1 replication ([2]; 3 μM and 6 μM): no significant reduction of the HIV-1 replication
HIV-1 replication ([3]; 3 μM and 6 μM): no significant reduction of the HIV-1 replication
toxicity (WST assay) ([7]; concentration >3 μM, day 13): complete death of the cells
reduction in living cells ([7]; permanent treatment, 3 μM, day 13): 40%

CC(=O)c1cc([N+](=O)[O-])c(Sc2ccc(F)cc2F)s1 [P22077, reference compound]
HIV replication ([2]; 7.5 μM, 15 μM, 30 μM and 60 μM): nearly complete inhibition of HIV replication
general cytotoxic damage of the host cell ([7]; 7.5 μM, 15 μM, 30 μM and 60 μM): does not exist
